Results as given in patent US12358921B2, “Antiviral heterocyclic compounds” (priority 2022, dated 2025).

Tested on: hMPV A2 TN/94-49
Test: HMPV antiviral assay Method 2 (LLC-MK2 cells with CP-100-356, ATP-Lite)
Type: cell-based
Details: hMPV A2 TN/94-49, LLC-MK2 cells, 4 μM CP-100-356, Method 2
Method: In vitro HMPV antiviral activity was evaluated using the clinical isolate A2 strain TN 94-49 (obtained from Dr. John Williams, Vanderbilt University, Tennessee) and LLC-MK2 cells (Millipore Sigma CB_85062804), an immortalized kidney epithelial cell line from Macaca mulatta. Compounds were resuspended in dimethyl sulfoxide (DMSO) at 10 mM, serially diluted and added to a 384-well source plate. Subsequently, the compounds were diluted and transferred onto 384-well assay plates using the Echo-650 automated liquid handling system (Beckman Coulter, Indiana). The test compounds were assessed in duplicate at a top concentration of 200 nM followed by 2.5-fold serial dilutions to give a total of 10 concentration points. DMSO control wells were also included on the assay plates and were either infected or not, acting as positive and negative controls. A2 TN 94-49 virus infections were performed in-suspension with LLC-MK2 cells. The cells were washed twice with PBS and removed from the cell-culture flask with 0.25% trypsin-EDTA (Thermo Fisher Scientific, MA). The trypsin-EDTA was inactivated by resuspending in 2% fetal bovine serum (FBS) and OptiMEM (ThermoFisher Scientific, MA) containing 1% antibiotic-antimycotic. Cells were pelleted by centrifuging for 5 minutes at 800 rpm, the supernatant was removed, and cells were re-suspended and washed in PBS plus 100 μg/mL CaCl2). This step was performed twice. Cells were then re-suspended in serum-free (SF)-OptiMEM containing 4 μg/mL TPCK-Trypsin (Sigma Aldrich, MO), 1% antibiotic-antimycotic (ThermoFisher Scientific, MA), 100 μg/mL CaCl2), and 4 μM of CP-100-356, a P-glycoprotein inhibitor. Cells were counted and seeded at a density of 5,000 cells/well, 12.5 μL/well. Virus infections were done at a multiplicity of infection (MOI) of 0.16 with 12.5 μL added per well. Virus infections were performed in infection media which contained SF-OptiMEM, 100 μg/mL CaCl2) and 1% antibiotic-antimycotic. HMPV viral stocks are suspended in infection media+5% glycerol, thus an equal volume of infection media+5% glycerol was added to uninfected wells to equalize the final % glycerol across all wells of the assay plate. The final concentration of TPCK-trypsin was 2 μg/mL. The final concentration of CP-100-356 was 2 μM. The assay plates were incubated at 37° C., 5% CO2 for 7 days. After 7 days incubation, 12.5 μL of ATP-Lite (PerkinElmer, MA) was added to each well and the raw luminescence values were determined using the Envision 2104 (Perkin Elmer, MA). The average of the raw luminescence values for the cells and virus only positive control wells was subtracted from all conditions tested and the percent cell health was determined by dividing these values by the average of the cells only negative control wells. EC50 values were then calculated by non-linear regression using a four-parameter curve logistic equation. The curve fit model employed was XLFit Dose Response One Site Model 200: y=(A+(B/(1+((x/C)^D)))), where A is the minimum y value, B is the maximum y value, C is the log EC50value, and D is the slope factor.

| EC50 | SMILES |
| --- | --- |
| < 200 nM | C[C@]1(C(N)=O)COc2c1cc([C@@](O)(CNC(=O)c1cc(OC3CC3)c3ncc(Cl)cc3c1)c1cccc(F)c1)nc2-c1cccc(Cl)c1Cl [Example 334] |
| < 200 nM | COc1cc(C(=O)NC[C@@](O)(c2ccccc2)c2cc3c(c(-c4ccc5c(c4)OC(F)(F)O5)n2)OC[C@]3(C)C(N)=O)cc2cc(Cl)cnc12 [Example 202] |
| > 200 nM | Cc1nc2c(OC(F)(F)F)cc(C(=O)NC[C@@](O)(c3ccccc3)c3cc4c(c(-c5cc(Cl)c(F)cc5F)n3)OC[C@]4(C)C(N)=O)cc2s1 [Example 188] |
| < 200 nM | C[C@]1(C(N)=O)COc2c1cc([C@@](O)(CNC(=O)c1cc(C(F)(F)F)c3nn(C4CC4)cc3c1)c1ccccc1)nc2-c1cc(Cl)c(F)cc1F [Example 228] |
| < 200 nM | COc1c(F)ccc(-c2nc([C@@](O)(CNC(=O)c3cc(OC)c4nn(C5(F)CC5)cc4c3)c3ccccc3)cc3c2OC[C@]3(C)C(N)=O)c1Cl [Example 375] |
| < 200 nM | COc1cc(C(=O)NC[C@](O)(c2cc3c(c(-c4cc(Cl)c(F)cc4F)n2)OC[C@]3(C)C(N)=O)c2ccnn2C)cc2cn(C3CC3)nc12 [Example 481] |
| < 200 nM | C[C@]1(C(N)=O)COc2c1cc([C@@](O)(CNC(=O)c1cc(OC3CC3)n3nc(C4CC4)cc3c1)c1ccccc1)nc2-c1cc(Cl)c(F)cc1F [Example 191] |
| < 200 nM | COc1cc(C(=O)NC[C@@](O)(c2ccccc2)c2cc3c(c(-c4cccc(F)c4F)n2)OC[C@]3(C)C(N)=O)cc2cn(C3(F)CC3)nc12 [Example 367] |
| < 200 nM | C[C@]1(C(N)=O)COc2c1cc([C@@](O)(CNC(=O)c1cc(OC3CC3)c3ncc(Cl)cc3c1)c1ccccc1)nc2-c1cc(C(F)(F)F)c(F)cc1F [Example 315] |
| < 200 nM | COc1cc(C(=O)NC[C@](O)(c2cc3c(c(-c4cc(Cl)c(F)cc4F)n2)OC[C@]3(C)C(N)=O)c2ccn(C)n2)cc2cn(C3CC3)nc12 [Example 480] |
| > 200 nM | COc1cc(C(=O)NCC(O)(c2cccc(F)c2)c2cc3c(c(-c4cccc(Cl)c4C#N)n2)OC[C@]3(C)C(N)=O)cc2cn(C3(F)CC3)nc12 (stereo partly shown) [Example 399] |
| > 200 nM | COc1cc(C(=O)NC[C@@](O)(c2ccccc2)c2cc3c(c(-c4cc(S(C)(=O)=O)ccc4F)n2)OC[C@]3(C)C(N)=O)cc2cn(C3(F)CC3)nc12 [Example 372] |
| < 200 nM | Cc1cc(C(=O)NC[C@@](O)(c2ccccc2)c2cc3c(c(-c4cc(Cl)c(F)cc4F)n2)OC[C@]3(C)C(N)=O)cc2cn[nH]c12 [Example 118] |
| < 200 nM | COc1cccc(-c2nc([C@@](O)(CNC(=O)c3cc(OC)c4nn(C5(F)CC5)cc4c3)c3ccccc3)cc3c2OC[C@]3(C)C(N)=O)c1Cl [Example 374] |
| > 200 nM | C[C@]1(C(N)=O)COc2c1cc([C@@](O)(CNC(=O)c1ccc3nc(-c4ccc5nc(C(F)F)oc5c4)oc3c1)c1ccccc1)nc2-c1cc(Cl)c(F)cc1F [Example 223] |
| < 200 nM | COc1cc(C(=O)NC[C@@](O)(c2ccccc2)c2cc3c(c(-c4cc(C(F)(F)F)ccc4F)n2)OC[C@]3(C)C(N)=O)cc2oc(C3CC3)nc12 [Example 332] |
| < 200 nM | COc1cc(C(=O)NC[C@@](O)(c2cncnc2)c2cc3c(c(-c4cc(Cl)c(F)cc4F)n2)OC[C@]3(C)C(N)=O)cc2cn(C3CC3)nc12 [Example 479] |
| < 200 nM | COc1cc([C@](O)(CNC(=O)c2cc(OC)c3nn(C4CC4)cc3c2)c2cc3c(c(-c4cccc(Cl)c4Cl)n2)OC[C@]3(C)C(N)=O)ccn1 [Example 494] |
| < 200 nM | COc1cc(C(=O)NC[C@@](O)(c2cnoc2)c2cc3c(c(-c4cc(Cl)c(F)cc4F)n2)OC[C@]3(C)C(N)=O)cc2cn(C3CC3)nc12 [Example 491] |
| > 200 nM | CC(C)c1nc2ccc(C(=O)NC[C@@](O)(c3ccccc3)c3cc4c(c(-c5cc(Cl)c(F)cc5F)n3)OC[C@]4(C)C(N)=O)cc2o1 [Example 224] |
| < 200 nM | COc1cc(C(=O)NCC(O)(c2ccc(F)cn2)c2cc3c(c(-c4cc(Cl)c(F)cc4F)n2)OC[C@]3(C)C(N)=O)cc2cn(C3CC3)nc12 (stereo partly shown) [Example 210] |
| < 200 nM | Cc1nc2c(OC3CC3)cc(C(=O)NC[C@@](O)(c3ccccc3)c3cc4c(c(-c5cc(Cl)c(F)cc5F)n3)OC[C@]4(C)C(N)=O)cc2s1 [Example 189] |

| EC50 | SMILES |
| --- | --- |
| < 200 nM | C[C@]1(C(N)=O)COc2c1cc([C@@](O)(CNC(=O)c1cc(Cl)c3nc(C4CC4)oc3c1)c1ccccc1)nc2-c1cc(Cl)c(F)cc1F [Example 232] |
| > 200 nM | COc1cc(C(=O)NC[C@@](O)(c2cccc(C(C)O)c2)c2cc3c(c(-c4cccc(Cl)c4Cl)n2)OC[C@]3(C)C(N)=O)cc2cn(C3CC3)nc12 (stereo partly shown) [Example 495] |
| < 200 nM | COc1cc(C(=O)NC[C@@](O)(c2ccccc2)c2cc3c(c(-c4ccc5c(c4)OC(F)(F)O5)n2)OC[C@]3(C)C(N)=O)cc2oc(C3CC3)nc12 [Example 200] |
| > 200 nM | COc1cc(C(=O)NC[C@@](O)(c2ccccc2)c2cc3c(c(-c4cc(Cl)c(F)cc4F)n2)OC[C@]3(C)C(N)=O)cc(O)c1NC(=O)C1(F)CC1 [Example 242] |
| < 200 nM | COc1cc(C(=O)NC[C@@](O)(c2ccnc(F)c2)c2cc3c(c(-c4cccc(Cl)c4Cl)n2)OC[C@]3(C)C(N)=O)cc2cn(C3CC3)nc12 [Example 492] |
| < 200 nM | COc1cc(C(=O)NCC(O)(c2ccccc2)c2cc3c(c(-c4ccc(F)c(Cl)c4)n2)OC[C@]3(C)C(N)=O)cc2cn(C3(F)CC3)nc12 (stereo partly shown) [Example 362] |
| > 200 nM | COc1cc(C(=O)NC[C@@](O)(c2ccccc2)c2cc3c(c(-c4cc(Cl)c(F)cc4F)n2)OC[C@]3(C)C(N)=O)cc2c1OCCC2 [Example 93] |
| < 200 nM | COc1cc([C@](O)(CNC(=O)c2cc(OC)c3nn(C4CC4)cc3c2)c2cc3c(c(-c4cc(Cl)c(F)cc4F)n2)OC[C@]3(C)C(N)=O)cc(F)n1 [Example 503] |
| < 200 nM | C[C@]1(C(N)=O)COc2c1cc([C@@](O)(CNC(=O)c1cc(OC3CC3)n3nc(C4CC4)cc3c1)c1cccc(F)c1)nc2-c1cccc(Cl)c1Cl [Example 335] |
| < 200 nM | COc1cc(C(=O)NC[C@@](O)(c2ccccc2)c2cc3c(c(-c4ccc5c(c4)OC(F)(F)O5)n2)OC[C@]3(C)C(N)=O)cc2oc(C)nc12 [Example 201] |
| < 200 nM | COc1cc(F)c(F)cc1-c1nc([C@@](O)(CNC(=O)c2cc(OC)c3nn(C4(F)CC4)cc3c2)c2ccccc2)cc2c1OC[C@]2(C)C(N)=O [Example 365] |
| > 200 nM | C[C@]1(C(N)=O)COc2c1cc([C@@](O)(CNC(=O)c1ccc3nc(-c4ccccc4)oc3c1)c1ccccc1)nc2-c1cc(Cl)c(F)cc1F [Example 227] |
| < 200 nM | COc1cc(C(=O)NC[C@@](O)(c2ccccc2)c2cc3c(c(-c4cc(Cl)ccc4F)n2)OC[C@]3(C)C(N)=O)cc2oc(C3CC3)nc12 [Example 331] |
| < 200 nM | C[C@]1(C(N)=O)COc2c1cc([C@@](O)(CNC(=O)c1ccc3nc(C4CC4)oc3c1)c1ccccc1)nc2-c1cc(C(F)F)c(F)cc1F [Example 311] |
| < 200 nM | Cc1nc2c(OC3CC3)cc(C(=O)NC[C@@](O)(c3ccccc3)c3cc4c(c(-c5cc(Cl)c(F)cc5F)n3)OC[C@]4(C)C(N)=O)cc2o1 [Example 234] |
| < 200 nM | COc1cc(C(=O)NC[C@@](O)(c2cccc(F)c2)c2cc3c(c(-c4cccc(Cl)c4Cl)n2)OC[C@]3(C)C(N)=O)cc2cc(Cl)cnc12 [Example 333] |
| < 200 nM | C[C@]1(C(N)=O)COc2c1cc([C@@](O)(CNC(=O)c1cc(OC3CC3)c3nc(C4CC4)oc3c1)c1ccccc1)nc2-c1cc(Cl)c(F)cc1F [Example 233] |
| < 200 nM | CNc1cc([C@](O)(CNC(=O)c2cc(OC)c3nn(C4CC4)cc3c2)c2cc3c(c(-c4cc(Cl)c(F)cc4F)n2)OC[C@]3(C)C(N)=O)ccn1 [Example 490] |
| > 200 nM | C[C@]1(C(N)=O)COc2c1cc([C@@](O)(CNC(=O)c1ccc3nc(C4CC4)oc3c1)c1ccccc1)nc2-c1ccc2c(c1)OC(F)(F)O2 [Example 199] |
| > 200 nM | COc1cc(OC)c2cc(C(=O)NC[C@@](O)(c3ccccc3)c3cc4c(c(-c5cc(Cl)c(F)cc5F)n3)OC[C@]4(C)C(N)=O)[nH]c2c1 [Example 94] |
| > 200 nM | C[C@]1(C(N)=O)COc2c1cc([C@@](O)(CNC(=O)c1ccc3nc(Cc4ccccc4)oc3c1)c1ccccc1)nc2-c1cc(Cl)c(F)cc1F [Example 230] |
